Measured values: US8076487B2, “Pyridone derivative and herbicide” (Kumiai Chemical Industry Co., Ltd., priority 2006, dated 2011)

Tests used:
Type in all cases: in vivo
[1] = system: barnyardgrass (Echinochloa crus-galli (L.) P. Beauv. var. crus-galli); assay: Test Example 3: herbicidal effect by application to upland field (foliage treatment); conditions: foliage treatment, 1,000 g active ingredient per 1 hectare, 14th day after application, greenhouse
How it was run: (§1)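 Sow in field soil; grow 2 weeks in greenhouse; spray foliage from above with wettable-powder dilution (1,000 g AI/ha, 1,000 L/ha); return to greenhouse; score effect at day 14 against a standard.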

[2] = system: velvetleaf (Abutilon theophrasti medicus); assay: as above; conditions: foliage treatment, 1,000 g active ingredient per 1 hectare, 14th day after application, greenhouse
How it was run: as §1

[3] = system: green foxtail (Setaria viridis (L.) P. Beauv.); assay: as above; conditions: foliage treatment, 1,000 g active ingredient per 1 hectare, 14th day after application, greenhouse
How it was run: as §1

[4] = system: slender amaranth (Amaranthus viridis L.); assay: as above; conditions: foliage treatment, 1,000 g active ingredient per 1 hectare, 14th day after application, greenhouse
How it was run: as §1

[5] = system: heartshape false pickerelweed (Monochoria vaginalis (Burm.f.) C.Presl); assay: Test Example 1: herbicidal effect by soil application to paddy field; conditions: paddy field soil application; active ingredient 1,000 g per 1 hectare; wettable powder added dropwise to water surface the day after sowing; examined on the 21st day after application
How it was run: (§2)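 Plants were sown in flooded (3 cm) paddy soil and evaluated for herbicidal effect 21 days after soil application in a greenhouse.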

[6] = system: Japanese bulrush (Scirpus juncoides Roxb.); assay: as above; conditions: paddy field soil application; active ingredient 1,000 g per 1 hectare; wettable powder added dropwise to water surface the day after sowing; examined on the 21st day after application
How it was run: as §2

[7] = system: early watergrass (Echinochloa oryzicola Vasing); assay: as above; conditions: paddy field soil application; active ingredient 1,000 g per 1 hectare; wettable powder added dropwise to water surface the day after sowing; examined on the 21st day after application
How it was run: as §2

[8] = system: barnyardgrass (Echinochloa crus-galli (L.) P. Beauv. var. crus-galli); assay: Test Example 2: herbicidal effect by soil application to upland field; conditions: soil surface spray, upland field soil, 1,000 g active ingredient per hectare, 21st day after application
How it was run: (§3)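 After sowing and covering, the soil received an even aqueous spray of wettable powder at a rate of 1,000 g active ingredient/ha (1,000 L/ha). Ratings of herbicidal effect followed a standard scale 21 days post-treatment, with plants held in a greenhouse.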

[9] = system: velvetleaf (Abutilon theophrasti medicus); assay: as above; conditions: soil surface spray, upland field soil, 1,000 g active ingredient per hectare, 21st day after application
How it was run: as §3

[10] = system: green foxtail (Setaria viridis (L.) P. Beauv.); assay: as above; conditions: soil surface spray, upland field soil, 1,000 g active ingredient per hectare, 21st day after application
How it was run: as §3

[11] = system: slender amaranth (Amaranthus viridis L.); assay: as above; conditions: soil surface spray, upland field soil, 1,000 g active ingredient per hectare, 21st day after application
How it was run: as §3

SMILES	herbicidal effect, Barnyardgrass [1]	herbicidal effect, Velvetleaf [2]	herbicidal effect, Green Foxtail [3]	herbicidal effect, Slender Amaranth [4]	herbicidal effect, Monochoria vaginalis (Burm. f.) C. Presl [5]	herbicidal effect, Scirpus juncoides Roxb. [6]	herbicidal effect, Echinochloa oryzicola Vasing [7]	herbicidal effect (index), Barnyardgrass [8]	herbicidal effect (index), Velvetleaf [9]	herbicidal effect (index), Green Foxtail [10]	herbicidal effect (index), Slender Amaranth [11]
CCCS(=O)(=O)Oc1c(C(=O)c2ccc(C(F)(F)F)n(-c3ccc(F)c(COC)c3)c2=O)cnn1C(C)C [IV-96]	3 (50 to less than 70% of herbicidal effect and crop phytotoxicity)	5 (90% or more of herbicidal effect and crop phytotoxicity)	5 (90% or more of herbicidal effect and crop phytotoxicity)	4 (70 to less than 90% of herbicidal effect and crop phytotoxicity)	5 (90% or more of herbicidal effect and crop phytotoxicity)	4 (70 to less than 90% of herbicidal effect and crop phytotoxicity)	5 (90% or more of herbicidal effect and crop phytotoxicity)	4 (70 to less than 90% of herbicidal effect and crop phytotoxicity)	5 (90% or more of herbicidal effect and crop phytotoxicity)	3 (50 to less than 70% of herbicidal effect and crop phytotoxicity)	4 (70 to less than 90% of herbicidal effect and crop phytotoxicity)
Cn1ncc(C(=O)c2ccc(C(F)(F)F)n(-c3ccc4c(c3)OCO4)c2=O)c1O [IV-97]	5 (90% or more of herbicidal effect and crop phytotoxicity)	5 (90% or more of herbicidal effect and crop phytotoxicity)	5 (90% or more of herbicidal effect and crop phytotoxicity)	5 (90% or more of herbicidal effect and crop phytotoxicity)	5 (90% or more of herbicidal effect and crop phytotoxicity)	5 (90% or more of herbicidal effect and crop phytotoxicity)	5 (90% or more of herbicidal effect and crop phytotoxicity)	5 (90% or more of herbicidal effect and crop phytotoxicity)	5 (90% or more of herbicidal effect and crop phytotoxicity)	4 (70 to less than 90% of herbicidal effect and crop phytotoxicity)	5 (90% or more of herbicidal effect and crop phytotoxicity)
CCCS(=O)(=O)Oc1c(C(=O)c2ccc(C(F)(F)F)n(-c3ccc4c(c3)OCO4)c2=O)cnn1C [IV-98]	5 (90% or more of herbicidal effect and crop phytotoxicity)	5 (90% or more of herbicidal effect and crop phytotoxicity)	4 (70 to less than 90% of herbicidal effect and crop phytotoxicity)	5 (90% or more of herbicidal effect and crop phytotoxicity)	5 (90% or more of herbicidal effect and crop phytotoxicity)	5 (90% or more of herbicidal effect and crop phytotoxicity)	5 (90% or more of herbicidal effect and crop phytotoxicity)	3 (50 to less than 70% of herbicidal effect and crop phytotoxicity)	5 (90% or more of herbicidal effect and crop phytotoxicity)	5 (90% or more of herbicidal effect and crop phytotoxicity)	5 (90% or more of herbicidal effect and crop phytotoxicity)
CCCS(=O)(=O)Oc1c(C(=O)c2ccc(C(F)(F)F)n(-c3ccc4c(c3)OCO4)c2=O)cnn1CC [IV-99]	5 (90% or more of herbicidal effect and crop phytotoxicity)	5 (90% or more of herbicidal effect and crop phytotoxicity)	5 (90% or more of herbicidal effect and crop phytotoxicity)	5 (90% or more of herbicidal effect and crop phytotoxicity)	5 (90% or more of herbicidal effect and crop phytotoxicity)	5 (90% or more of herbicidal effect and crop phytotoxicity)	5 (90% or more of herbicidal effect and crop phytotoxicity)	5 (90% or more of herbicidal effect and crop phytotoxicity)	4 (70 to less than 90% of herbicidal effect and crop phytotoxicity)	3 (50 to less than 70% of herbicidal effect and crop phytotoxicity)	4 (70 to less than 90% of herbicidal effect and crop phytotoxicity)
Cn1ncc(C(=O)c2ccc(C(F)(F)F)n(-c3ccc4c(c3)OCCO4)c2=O)c1O [IV-101]	5 (90% or more of herbicidal effect and crop phytotoxicity)	4 (70 to less than 90% of herbicidal effect and crop phytotoxicity)	3 (50 to less than 70% of herbicidal effect and crop phytotoxicity)	4 (70 to less than 90% of herbicidal effect and crop phytotoxicity)	5 (90% or more of herbicidal effect and crop phytotoxicity)	5 (90% or more of herbicidal effect and crop phytotoxicity)	5 (90% or more of herbicidal effect and crop phytotoxicity)	5 (90% or more of herbicidal effect and crop phytotoxicity)	4 (70 to less than 90% of herbicidal effect and crop phytotoxicity)	4 (70 to less than 90% of herbicidal effect and crop phytotoxicity)	5 (90% or more of herbicidal effect and crop phytotoxicity)
CCCS(=O)(=O)Oc1c(C(=O)c2ccc(C(F)(F)F)n(CC3CC(C)=NO3)c2=O)cnn1CC (stereo not shown) [IV-106]	5 (90% or more of herbicidal effect and crop phytotoxicity)	5 (90% or more of herbicidal effect and crop phytotoxicity)	5 (90% or more of herbicidal effect and crop phytotoxicity)	5 (90% or more of herbicidal effect and crop phytotoxicity)	5 (90% or more of herbicidal effect and crop phytotoxicity)	5 (90% or more of herbicidal effect and crop phytotoxicity)	5 (90% or more of herbicidal effect and crop phytotoxicity)	5 (90% or more of herbicidal effect and crop phytotoxicity)	5 (90% or more of herbicidal effect and crop phytotoxicity)	5 (90% or more of herbicidal effect and crop phytotoxicity)	5 (90% or more of herbicidal effect and crop phytotoxicity)
CCn1ncc(C(=O)c2ccc(C(F)(F)F)n(CC3CC(C)=NO3)c2=O)c1O (stereo not shown) [IV-107]	5 (90% or more of herbicidal effect and crop phytotoxicity)	5 (90% or more of herbicidal effect and crop phytotoxicity)	5 (90% or more of herbicidal effect and crop phytotoxicity)	5 (90% or more of herbicidal effect and crop phytotoxicity)	5 (90% or more of herbicidal effect and crop phytotoxicity)	5 (90% or more of herbicidal effect and crop phytotoxicity)	5 (90% or more of herbicidal effect and crop phytotoxicity)	5 (90% or more of herbicidal effect and crop phytotoxicity)	5 (90% or more of herbicidal effect and crop phytotoxicity)	5 (90% or more of herbicidal effect and crop phytotoxicity)	5 (90% or more of herbicidal effect and crop phytotoxicity)
CCCS(=O)(=O)Oc1c(C(=O)c2ccc(C(F)(F)F)n(CC(OC)OC)c2=O)cnn1C [IV-118]	5 (90% or more of herbicidal effect and crop phytotoxicity)	5 (90% or more of herbicidal effect and crop phytotoxicity)	5 (90% or more of herbicidal effect and crop phytotoxicity)	5 (90% or more of herbicidal effect and crop phytotoxicity)	5 (90% or more of herbicidal effect and crop phytotoxicity)	5 (90% or more of herbicidal effect and crop phytotoxicity)	5 (90% or more of herbicidal effect and crop phytotoxicity)	5 (90% or more of herbicidal effect and crop phytotoxicity)	5 (90% or more of herbicidal effect and crop phytotoxicity)	5 (90% or more of herbicidal effect and crop phytotoxicity)	5 (90% or more of herbicidal effect and crop phytotoxicity)
